Data on 15 compounds can be found in patent US5026698A, “Thienopyridine type mevalonolactones” (Nissan Chemical Industries, Ltd., priority 1988, dated 1991).

Data set [1] deals with cholesterol biosynthesis. In words: Test C: Inhibition of cholesterol biosynthesis in vivo. More on the design: species or system Male Sprague-Dawley rats. Conditions: oral, 0.2 mg/kg, rats; DPM/2 ml serum/2 hours. On the procedure:
Male Sprague-Dawley rats weighing about 150 g were fed normal Purina chow diet and water ad libitum, and exposed to 12 hours light/12 hours dark lighting pattern (2:00 PM-2:00 AM dark) prior to use for in vivo inhibition test of cholesterol biosynthesis. Animals were separated groups consisting of five rats as to be average mean body weight in each groups. Test compounds at dosage of 0.02-0.2 mg/kg body weight (0.4 ml/100 g body weight), were dissolved in water or suspended in 0 5% methyl cellulose and orally administered at 2-3 hours before mid-dark (8:00 PM), while cholesterol biosynthesis reaches to maximum in rats. As control, rats were orally administered only water or vehicle. At 90 minutes after sample administration, rats were injected intraperitoneally with 10 μCi of [2-^14 C]sodium acetate at volume of 0.2 ml per one. 2 Hours later, blood samples were obtained and serum were separated immediately. Total lipids were extracted according to the method of Folch et al. and saponified with EtOH-KOH. Nonsaponifiable lipids were extracted with petroleum ether and radio activity incorporated into nonsaponifiable lipids was counted.
Inhibitory activity was indicated as percent decrease of counts in testing groups (DPM/2 ml serum/2 hours) from that in control group.

Data set [2] concerns cholesterol biosynthesis in Hep G2 cells. In words: Test B-1: Inhibition of cholesterol biosynthesis in culture cells (Hep G2, [2-14C]sodium acetate added at 0 hr). Format: cell-based. Conditions: for Relative activities by Test B-1: based on the activity of CS-514 by Test B-1 being evaluated to be 1; for inhibition at 1 µM: 1.0 × 10^-6 mol/l, read-out: Inhibitory activities at a concentration of 1.0 × 10^-6 mol/l by Test B-1 (Relative activities). As to the method:
Hep G2 cells at over 5th passage were seeded to 12 well plates and incubated with Dulbecco's modified Eagle (DME) medium containing 10% of fetal bovine serum (FBS) at 37° C., 5% CO2 until cells -were confluent for about 7 days. Cells were exposed to the DME medium containing 5% of lipoprotein deficient serum (LpDS) prepared by ultracentrifugation method for over 24 hours. Medium was changed to 0.5 ml of fresh 5% LpDS containing DME before assay and 10 μl of test compound solution dissolved in water or DMSO were added. 0.2 μCi of [2-^14 C]sodium acetate (20 μl) was added at 0 hr(B 1) or 4 hrs(B 2) after addition of compounds. After 4 hrs further incubation with [2-^14 C]sodium acetate, medium was removed and cells were washed with phosphate buffered saline (PBS) chilled at 4° C. Cells were scraped with rubber policeman and collected to tubes with PBS and digested with 0.2 ml of 0.5N KOH at 37° C. Aliquot of digestion was used for protein analysis and remaining was saponified with 1 ml of 15% EtOH-KOH at 75° C. for 1 hour. Nonsaponifiable lipids were extracted with petroleum ether and ^14 C radioactivity was counted. Counts were revised by cell protein and indicated with DPM/mg protein. Inhibitory activity of compounds was indicated with IC50. With respect to the compounds of the present invention, the inhibitory activities against the cholesterol biosynthesis in which HMG-CoA reductase serves as a rate limiting enzyme, were measured by the above Test A and B.

Data set [3] concerns cholesterol biosynthesis. As to the kind of experiment: Test A: Inhibition of cholesterol biosynthesis from acetate in vitro (rat liver microsome and sup fraction, [2-14C]sodium acetate). The format is biochemical, male Wistar rat. Conditions: for Relative activities by Test A: based on the activity of CS-514 by Test A being evaluated to be 1. On the procedure: Enzyme solution was prepared from liver of male Wistar rat billialy connulated and discharged bile for over 24 hours. Liver was cut out at mid-dark and microsome and supernatant fraction which was precipitable with 40-80% of solution of ammonium sulfate (sup fraction) were prepared from liver homogenate according to the modified method of Knauss et. al.; Kuroda, M., et. al., Biochim. Biophys. Acta, 489, 119 (1977). For assay of cholesterol biosynthesis, microsome (0.1 mg protein) and sup fraction (1.0 mg protein) were incubated for 2 hours at 37° C. in 200 μl of the reaction mixture containing ATP; 1 mM, Glutathione; 6 mM, Glucose-1-phosphate; 10 mM, AND; 0.25 mM, NADP; 0.25 mM, CoA; 0.04 mM and 0.2 mM [2-^14 C]sodium acetate (0.2 μCi) with 4 μl of test compound solution dissolved in water or dimethyl sulfoxide. To stop reaction and saponify, 1 ml of 15% EtOH-KOH was added to the reactions and heated at 75° C. for 1 hour. Nonsaponifiable lipids were extracted with petroleum ether and incorporated ^14 C radioactivity was counted. Inhibitory activity of compounds was indicated with IC50.
With respect to the compounds of the present invention, the inhibitory activities against the cholesterol biosynthesis in which HMG-CoA reductase serves as a rate limiting enzyme, were measured by the above Test A and B. The results are shown in Tables 2, 3-1 and 3-2.
The relative activities of the compounds of the present invention based on the activities of CS-514 by Test A being evaluated to be 1, are shown in Table 2.
In general terms: Microsomes from liver hold many membrane-bound enzymes, among them those of drug oxidation.

A further data set in a line: Test D: Acute toxicity. Conditions: mouse, in vivo, 1000 mg/kg; oral, 1,000 mg/kg, 0.5% CMC suspension, ICR male mice (group of three); read-out: mortality after seven days. As to the method:
A 0.5% CMC suspension of a test compound was orally administered to ICR male mice (group of three mice). The acute toxicity was determined based on the mortality after seven darys. With compound I-5-1, I-5-2, I-5-8, I-5-9 and I-5-10 of the present ivnention, the mortality was 0% even when they were orally administered in an amount of 1,000 mg/kg, respectively.

Setting [4] is: Homo sapiens, HepG2, Hep G2 cells.

Molecules are shown by their SMILES.

As a reminder, the IC50 is the concentration that gives 50% inhibition. On to `CC[C@H](C)C(=O)O[C@H]1C[C@H](O)C=C2C=C[C@H](C)[C@H](CC[C@@H](O)C[C@@H](O)CC(=O)O)[C@H]21` [CS-514, reference compound], for which the “percent decrease of counts relative to control group (Test C)” value with cholesterol biosynthesis [1] was 34%. Also, the IC50 was 1370 nM in data set [2] (Homo sapiens, HepG2, Hep G2 cells, [2-14C]sodium acetate added at 0 hr) and 9 nM in the data set with cholesterol biosynthesis [3] (rat liver microsome + sup fraction, 2 hours at 37° C.).

The term mortality denotes the percentage killed. For `CCc1c(C)sc2nc(C(C)C)c(/C=C/C(O)CC(O)CC(=O)O)c(-c3ccc(F)cc3)c12` (stereo not shown) [Compound I-5-1, Sodium (E)-7-[3'-ethyl-4'-(4"-fluorophenyl)-2'-methyl-6'-(1"-methylethyl)thieno[2,3-b]pyridin-5'-yl]-3,5-dihydroxyhept-6-enoate], the mortality at 168 h in “Test D: Acute toxicity” is 0%. Also, the “Relative activities by Test B-1” value in data set [2] is recorded as 152. Further, the “Relative activities by Test A” value with cholesterol biosynthesis [3] was 0.55.

`CC(C)c1nc2sc3c(c2c(-c2ccc(F)cc2)c1/C=C/C(O)CC(O)CC(=O)O)CCC3` (stereo not shown) [Compound I-5-8]: the mortality at 168 h in the data set “Test D: Acute toxicity” turned out to be 0%. In addition, the inhibition at 1 µM in data set [2] (setting [4]) is 63.6%. In the data set on cholesterol biosynthesis [3], the “Relative activities by Test A” value is given as 0.32.

As to `O=C(O)CC(O)CC(O)/C=C/c1c(C2CC2)nc2sc3c(c2c1-c1ccc(F)cc1)CCC3` (stereo not shown) [Compound I-5-9], in the data set “Test D: Acute toxicity”, the mortality at 168 h was determined as 0%. For the same compound, the inhibition at 1 µM in data set [2] (setting [4]) turned out to be 62.4%. For the same compound, in the data set with cholesterol biosynthesis [3], the “Relative activities by Test A” value was 2.9.

Regarding `CCOC(=O)CC(=O)CC(O)/C=C/c1c(C(C)C)nc2sc(C)cc2c1-c1ccc(F)cc1` (stereo not shown) [II-2], the “Relative activities by Test B-1” value in data set [2] amounted to 152.

For the compound `O=C(O)CC(O)CC(O)/C=C/c1c(C2CC2)nc2sccc2c1-c1ccc(F)cc1` (stereo not shown) [Compound I-5-11], the “percent decrease of counts relative to control group (Test C)” value with cholesterol biosynthesis [1] was 65%. The “Relative activities by Test B-1” value in data set [2] was 60.

Turning to `CCOC(=O)CC(O)CC(O)/C=C/c1c(C(C)C)nc2sc(C)c(CC)c2c1-c1ccc(F)cc1` (stereo not shown) [Compound I-1-1, Ethyl (E)-7-[3'-ethyl-4'-(4"-fluorophenyl)-2'-methyl-6'-(1"-methylethyl)thieno[2,3-b]pyridin-5'-yl]-3,5-dihydroxyhept-6-enoate], the “Relative activities by Test B-1” value in data set [2] is 196. In addition, in the data set with cholesterol biosynthesis [3], the “Relative activities by Test A” value is reported as 0.50.

Turning to `Cc1sc2nc(C(C)C)c(/C=C/C(O)CC(O)CC(=O)O)c(-c3ccc(F)cc3)c2c1-c1ccccc1` (stereo not shown) [Compound I-5-4], in data set [2] (setting [4]), the inhibition at 1 µM came to 48.2%. Also, the “Relative activities by Test B-1” value in data set [2] stood at 1.4.

Consider `CC(C)c1cc2c(-c3ccc(F)cc3)c(/C=C/C(O)CC(O)CC(=O)O)c(C(C)C)nc2s1` (stereo not shown) [Compound I-5-5], for which the inhibition at 1 µM in data set [2] (setting [4]) amounted to 69.8%. The “Relative activities by Test B-1” value in data set [2] is 62. Besides, the “Relative activities by Test A” value in the data set with cholesterol biosynthesis [3] is recorded as 0.31.

As to `CC(C)c1nc2sc3c(c2c(-c2ccc(F)cc2)c1/C=C/C(O)CC(O)CC(=O)O)CCCC3` (stereo not shown) [Compound I-5-6], the “Relative activities by Test B-1” value in data set [2] was 152. The “Relative activities by Test A” value in the data set with cholesterol biosynthesis [3] was 4.1.

For `O=C(O)CC(O)CC(O)/C=C/c1c(C2CC2)nc2sc3c(c2c1-c1ccc(F)cc1)CCCCC3` (stereo not shown) [Compound I-5-10], the mortality at 168 h in “Test D: Acute toxicity” came to 0%. Further, the inhibition at 1 µM in data set [2] (setting [4]) was found to be 53.6%. Also, the “Relative activities by Test A” value in the data set with cholesterol biosynthesis [3] is on record as 0.21.

`Cc1cc2c(-c3ccc(F)cc3)c(/C=C/C(O)CC(O)CC(=O)O)c(C(C)C)nc2s1` (stereo not shown) [Compound I-5-2]: the mortality at 168 h in “Test D: Acute toxicity” amounted to 0%. Further, in data set [2], the “Relative activities by Test B-1” value was 76. Besides, in the data set on cholesterol biosynthesis [3], the “Relative activities by Test A” value is recorded as 0.51.

On to `CCc1c(C)sc2nc(C3CC3)c(/C=C/C(O)CC(O)CC(=O)O)c(-c3ccc(F)cc3)c12` (stereo not shown) [Compound I-5-7], for which, in data set [2] (setting [4]), the inhibition at 1 µM is 64.1%. Moreover, the “Relative activities by Test A” value with cholesterol biosynthesis [3] came to 0.36.

With `O=C1C[C@H](O)C[C@@H](/C=C/c2c(C3CC3)nc3sccc3c2-c2ccc(F)cc2)O1` (relative stereo) [Compound I-3-11, (E)-trans-6-[2'-(6"-cyclopropyl-4"-(4"'-fluorophenyl)-thieno[2,3-b]pyridin-5"-yl)ethenyl]-4-hydroxy-3,4,5,6-tetrahydro-2H-pyran-2-one], the “percent decrease of counts relative to control group (Test C)” value in the data set with cholesterol biosynthesis [1] stood at 68%.

For `CC(C)c1nc2sc(-c3ccccc3)cc2c(-c2ccc(F)cc2)c1/C=C/C(O)CC(O)CC(=O)O` (stereo not shown) [Compound I-5-3], the inhibition at 1 µM in data set [2] (setting [4]) turned out to be 46.8%.
